Data reported in article PMC10879502, “Linking ATP and allosteric sites to achieve superadditive binding with bivalent EGFR kinase inhibitors” (Communications Chemistry, 2024).

What was measured:
Experiment in all cases: KINOMEscan
Format in all cases: binding
Details in all cases: 1 μM
[1] = target: AKT1 (Homo sapiens, UniProt P31749)
[2] = target: ALK(L1196M) (Homo sapiens, UniProt Q9UM73, L1196M)
[3] = target: BMPR1A (Homo sapiens, UniProt P36894)
[4] = target: T1, CAMK1 (Homo sapiens, UniProt Q14012)
T1 construct: purchased Eurofins DiscoverX Corporation (KINOMEscan)

[5] = target: T2, CAMK1B (Homo sapiens, UniProt Q6P2M8)
T2 construct: purchased Eurofins DiscoverX Corporation (KINOMEscan)

[6] = target: T3, CAMK1G (Homo sapiens, UniProt Q96NX5)
T3 construct: purchased Eurofins DiscoverX Corporation (KINOMEscan)

[7] = target: CDK2 (Homo sapiens, UniProt P24941)
[8] = target: CSK (Homo sapiens, UniProt P41240)
[9] = target: T4, DMPK (Homo sapiens, UniProt Q09013)
T4 construct: purchased Eurofins DiscoverX Corporation

[10] = target: EGFR(G719C) (Homo sapiens, UniProt P00533, G719C)
[11] = target: ERBB2 (Homo sapiens, UniProt P04626)
[12] = target: FAK (Homo sapiens, UniProt Q05397)
[13] = target: FER (Homo sapiens, UniProt P16591)
[14] = target: FLT3(D835V) (Homo sapiens, UniProt P36888, D835V)
[15] = target: T5, FLT3(R834Q) (Homo sapiens, UniProt P36888, R834Q)
T5 construct: purchased Eurofins DiscoverX Corporation

[16] = target: T6, INSR (Homo sapiens, UniProt P06213)
T6 construct: purchased Eurofins DiscoverX (KINOMEscan)

[17] = target: T7, JNK2 (Homo sapiens, UniProt P45984)
T7 construct: purchased Eurofins DiscoverX (KINOMEscan)

[18] = target: T8, KIT(D816V) (Homo sapiens, UniProt P10721, D816V)
T8 construct: purchased Eurofins DiscoverX (KINOMEscan)

[19] = target: T9, KIT(V559D) (Homo sapiens, UniProt P10721, V559D)
T9 construct: purchased Eurofins DiscoverX Corporation

[20] = target: T10, KIT(V559D+V654A) (Homo sapiens, UniProt P10721, V559D/V654A)
T10 construct: purchased Eurofins DiscoverX Corporation

[21] = target: T11, LOK (Homo sapiens, UniProt O94804)
T11 construct: purchased Eurofins DiscoverX Corporation

[22] = target: T12, MAK (Homo sapiens, UniProt P20794)
T12 construct: purchased Eurofins DiscoverX Corporation

[23] = target: T13, MAP4K3 (Homo sapiens, UniProt Q8IVH8)
T13 construct: purchased Eurofins DiscoverX Corporation

[24] = target: T14, MARK3 (Homo sapiens, UniProt P27448)
T14 construct: purchased Eurofins DiscoverX Corporation

[25] = target: T15, MEK1 (Homo sapiens, UniProt Q02750)
T15 construct: purchased Eurofins DiscoverX Corporation

[26] = target: T16, MEK3 (Homo sapiens, UniProt P46734)
T16 construct: purchased Eurofins DiscoverX Corporation

[27] = target: T17, MET (Homo sapiens, UniProt P08581)
T17 construct: purchased Eurofins DiscoverX Corporation

[28] = target: T18, MRCKA (Homo sapiens, UniProt Q5VT25)
T18 construct: purchased Eurofins DiscoverX Corporation

[29] = target: T19, MTOR (Homo sapiens, UniProt P42345)
T19 construct: purchased Eurofins DiscoverX Corporation

[30] = target: T20, MYO3A (Homo sapiens, UniProt Q8NEV4)
T20 construct: purchased Eurofins DiscoverX Corporation

[31] = target: PAK1 (Homo sapiens, UniProt Q13153)
[32] = target: PDGFRB (Homo sapiens, UniProt P09619)
[33] = target: PIK4CB (Homo sapiens, UniProt Q9UBF8)
[34] = target: PIP5K2B (Homo sapiens, UniProt P78356)
[35] = target: T21, STK39 (Homo sapiens, UniProt Q9UEW8)
T21 construct: purchased Eurofins DiscoverX Corporation

[36] = target: T22, TAOK2 (Homo sapiens, UniProt Q9UL54)
T22 construct: purchased Eurofins DiscoverX Corporation

[37] = target: T23, TEC (Homo sapiens, UniProt P42680)
T23 construct: purchased Eurofins DiscoverX Corporation

[38] = target: T24, TESK1 (Homo sapiens, UniProt Q15569)
T24 construct: purchased Eurofins DiscoverX Corporation

[39] = target: T25, TNK1 (Homo sapiens, UniProt Q13470)
T25 construct: purchased Eurofins DiscoverX Corporation

[40] = target: T26, TSSK1B (Homo sapiens, UniProt Q9BXA7)
T26 construct: purchased Eurofins DiscoverX Corporation

[41] = target: TXK (Homo sapiens, UniProt P42681)

Chain of PDGFRB (P09619 33-1106): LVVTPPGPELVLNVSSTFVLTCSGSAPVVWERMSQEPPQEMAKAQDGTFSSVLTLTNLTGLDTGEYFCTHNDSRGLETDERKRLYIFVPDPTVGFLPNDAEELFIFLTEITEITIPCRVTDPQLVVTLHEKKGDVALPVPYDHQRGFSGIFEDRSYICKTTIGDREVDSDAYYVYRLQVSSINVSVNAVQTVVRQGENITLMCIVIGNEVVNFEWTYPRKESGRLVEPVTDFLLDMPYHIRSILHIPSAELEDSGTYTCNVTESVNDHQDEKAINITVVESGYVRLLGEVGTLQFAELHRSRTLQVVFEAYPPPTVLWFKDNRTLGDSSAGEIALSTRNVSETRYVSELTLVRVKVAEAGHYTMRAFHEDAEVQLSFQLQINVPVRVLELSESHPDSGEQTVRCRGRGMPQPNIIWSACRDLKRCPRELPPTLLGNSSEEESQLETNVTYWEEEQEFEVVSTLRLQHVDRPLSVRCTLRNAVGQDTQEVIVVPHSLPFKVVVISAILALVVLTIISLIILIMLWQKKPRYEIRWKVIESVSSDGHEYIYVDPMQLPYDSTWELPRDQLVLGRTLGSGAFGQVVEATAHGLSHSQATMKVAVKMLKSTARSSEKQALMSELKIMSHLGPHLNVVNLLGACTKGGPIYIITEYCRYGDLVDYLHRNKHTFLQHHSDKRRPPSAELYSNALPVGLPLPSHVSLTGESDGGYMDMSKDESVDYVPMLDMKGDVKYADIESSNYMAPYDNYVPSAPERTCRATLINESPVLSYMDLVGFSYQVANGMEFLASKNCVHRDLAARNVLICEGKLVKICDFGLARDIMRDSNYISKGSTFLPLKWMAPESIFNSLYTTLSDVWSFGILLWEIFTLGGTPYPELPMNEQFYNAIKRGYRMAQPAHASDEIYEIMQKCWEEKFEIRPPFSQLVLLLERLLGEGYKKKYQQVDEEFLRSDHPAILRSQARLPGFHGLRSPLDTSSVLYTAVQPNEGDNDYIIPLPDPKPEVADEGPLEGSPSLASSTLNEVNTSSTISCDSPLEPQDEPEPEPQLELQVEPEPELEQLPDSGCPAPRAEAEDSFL
T13 sequence (Q8IVH8 whole entry): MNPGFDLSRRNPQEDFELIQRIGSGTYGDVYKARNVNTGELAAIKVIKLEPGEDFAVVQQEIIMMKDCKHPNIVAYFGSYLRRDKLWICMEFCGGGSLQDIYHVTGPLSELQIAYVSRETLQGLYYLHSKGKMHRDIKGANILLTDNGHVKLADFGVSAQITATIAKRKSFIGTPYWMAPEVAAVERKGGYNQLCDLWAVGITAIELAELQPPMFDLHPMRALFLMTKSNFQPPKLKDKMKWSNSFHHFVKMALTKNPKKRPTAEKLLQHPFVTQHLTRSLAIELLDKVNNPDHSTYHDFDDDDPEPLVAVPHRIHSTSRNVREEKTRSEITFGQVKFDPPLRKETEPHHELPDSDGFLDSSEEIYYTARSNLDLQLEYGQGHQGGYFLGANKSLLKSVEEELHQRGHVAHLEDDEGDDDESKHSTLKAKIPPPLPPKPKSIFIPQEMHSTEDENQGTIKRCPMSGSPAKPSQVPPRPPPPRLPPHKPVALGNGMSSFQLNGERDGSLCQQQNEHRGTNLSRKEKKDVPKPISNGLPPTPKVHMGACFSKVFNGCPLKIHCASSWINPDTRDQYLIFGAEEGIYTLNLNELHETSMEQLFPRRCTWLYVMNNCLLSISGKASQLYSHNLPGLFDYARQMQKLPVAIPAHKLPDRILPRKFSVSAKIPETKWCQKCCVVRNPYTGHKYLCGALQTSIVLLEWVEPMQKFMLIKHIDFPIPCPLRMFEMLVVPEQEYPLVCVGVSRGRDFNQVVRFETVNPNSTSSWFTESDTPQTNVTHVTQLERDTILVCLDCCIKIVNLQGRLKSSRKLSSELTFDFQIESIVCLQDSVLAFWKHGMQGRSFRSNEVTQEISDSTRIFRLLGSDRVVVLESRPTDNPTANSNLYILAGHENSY
Chain of CSK (P41240 whole entry): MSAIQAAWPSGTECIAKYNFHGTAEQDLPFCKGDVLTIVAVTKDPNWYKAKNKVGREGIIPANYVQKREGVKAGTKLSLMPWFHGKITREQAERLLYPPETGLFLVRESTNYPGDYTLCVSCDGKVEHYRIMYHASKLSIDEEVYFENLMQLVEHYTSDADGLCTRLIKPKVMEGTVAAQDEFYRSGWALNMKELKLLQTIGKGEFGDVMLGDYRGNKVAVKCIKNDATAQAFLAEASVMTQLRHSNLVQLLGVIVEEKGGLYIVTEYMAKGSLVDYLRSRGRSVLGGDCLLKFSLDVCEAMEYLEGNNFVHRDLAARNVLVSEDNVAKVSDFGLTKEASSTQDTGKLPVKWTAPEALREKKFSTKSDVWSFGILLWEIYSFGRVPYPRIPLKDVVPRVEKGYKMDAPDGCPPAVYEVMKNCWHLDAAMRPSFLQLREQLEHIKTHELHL
Chain of AKT1 (P31749 whole entry): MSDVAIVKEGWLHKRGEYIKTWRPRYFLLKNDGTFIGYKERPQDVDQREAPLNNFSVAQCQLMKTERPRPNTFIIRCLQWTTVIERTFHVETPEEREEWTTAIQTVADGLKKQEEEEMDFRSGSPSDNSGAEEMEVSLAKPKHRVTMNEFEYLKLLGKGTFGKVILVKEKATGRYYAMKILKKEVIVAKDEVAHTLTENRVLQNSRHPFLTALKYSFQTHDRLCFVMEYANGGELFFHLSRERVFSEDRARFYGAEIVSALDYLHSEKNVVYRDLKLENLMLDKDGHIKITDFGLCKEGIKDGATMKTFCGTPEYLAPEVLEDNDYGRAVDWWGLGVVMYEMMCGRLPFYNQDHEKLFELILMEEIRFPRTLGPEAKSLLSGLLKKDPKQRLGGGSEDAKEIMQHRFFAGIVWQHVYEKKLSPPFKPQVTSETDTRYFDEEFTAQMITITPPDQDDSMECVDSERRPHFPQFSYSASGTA
T18 sequence (Q5VT25 whole entry): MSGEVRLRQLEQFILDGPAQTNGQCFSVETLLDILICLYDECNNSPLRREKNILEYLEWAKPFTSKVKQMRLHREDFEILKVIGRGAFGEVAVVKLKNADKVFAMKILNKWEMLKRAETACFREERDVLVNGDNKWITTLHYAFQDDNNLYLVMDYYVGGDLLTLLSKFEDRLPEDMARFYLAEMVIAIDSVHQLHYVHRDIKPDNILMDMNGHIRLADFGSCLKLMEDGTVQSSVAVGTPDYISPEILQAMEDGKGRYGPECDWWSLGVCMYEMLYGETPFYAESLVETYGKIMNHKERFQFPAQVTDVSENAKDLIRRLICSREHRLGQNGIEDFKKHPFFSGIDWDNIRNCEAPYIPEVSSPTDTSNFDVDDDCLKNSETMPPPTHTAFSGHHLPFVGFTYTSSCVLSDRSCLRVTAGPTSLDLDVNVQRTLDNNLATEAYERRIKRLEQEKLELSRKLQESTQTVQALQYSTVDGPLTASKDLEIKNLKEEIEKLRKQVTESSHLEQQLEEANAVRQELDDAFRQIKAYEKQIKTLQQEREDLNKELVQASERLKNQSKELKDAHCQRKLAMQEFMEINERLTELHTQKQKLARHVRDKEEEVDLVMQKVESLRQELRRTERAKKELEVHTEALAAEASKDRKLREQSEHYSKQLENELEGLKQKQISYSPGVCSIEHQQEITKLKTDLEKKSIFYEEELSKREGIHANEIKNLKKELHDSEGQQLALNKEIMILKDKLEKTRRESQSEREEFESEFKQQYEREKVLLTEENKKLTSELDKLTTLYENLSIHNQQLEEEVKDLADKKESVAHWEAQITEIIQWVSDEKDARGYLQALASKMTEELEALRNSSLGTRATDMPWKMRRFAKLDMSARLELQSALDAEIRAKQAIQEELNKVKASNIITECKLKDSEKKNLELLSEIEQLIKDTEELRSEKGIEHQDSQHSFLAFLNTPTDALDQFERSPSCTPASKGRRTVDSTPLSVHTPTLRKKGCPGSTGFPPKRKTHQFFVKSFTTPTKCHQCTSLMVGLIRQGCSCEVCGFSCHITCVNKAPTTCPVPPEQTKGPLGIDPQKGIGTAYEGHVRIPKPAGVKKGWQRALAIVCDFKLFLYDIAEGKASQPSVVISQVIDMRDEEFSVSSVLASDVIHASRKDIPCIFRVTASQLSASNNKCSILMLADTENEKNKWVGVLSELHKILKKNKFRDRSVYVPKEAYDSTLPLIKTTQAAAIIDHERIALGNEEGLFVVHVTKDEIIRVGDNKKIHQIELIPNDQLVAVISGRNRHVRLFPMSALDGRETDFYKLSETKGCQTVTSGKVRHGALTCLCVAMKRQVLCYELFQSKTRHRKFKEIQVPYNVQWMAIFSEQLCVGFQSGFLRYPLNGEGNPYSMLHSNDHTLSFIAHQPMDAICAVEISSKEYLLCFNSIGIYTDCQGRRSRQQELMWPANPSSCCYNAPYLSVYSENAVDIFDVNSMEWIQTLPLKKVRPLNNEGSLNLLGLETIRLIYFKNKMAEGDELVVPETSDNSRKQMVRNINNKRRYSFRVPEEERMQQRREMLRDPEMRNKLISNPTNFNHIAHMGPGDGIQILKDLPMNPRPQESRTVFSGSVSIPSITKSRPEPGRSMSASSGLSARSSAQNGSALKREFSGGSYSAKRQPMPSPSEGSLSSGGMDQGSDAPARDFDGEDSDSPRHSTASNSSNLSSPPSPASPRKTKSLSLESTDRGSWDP
T1 sequence (Q14012 whole entry): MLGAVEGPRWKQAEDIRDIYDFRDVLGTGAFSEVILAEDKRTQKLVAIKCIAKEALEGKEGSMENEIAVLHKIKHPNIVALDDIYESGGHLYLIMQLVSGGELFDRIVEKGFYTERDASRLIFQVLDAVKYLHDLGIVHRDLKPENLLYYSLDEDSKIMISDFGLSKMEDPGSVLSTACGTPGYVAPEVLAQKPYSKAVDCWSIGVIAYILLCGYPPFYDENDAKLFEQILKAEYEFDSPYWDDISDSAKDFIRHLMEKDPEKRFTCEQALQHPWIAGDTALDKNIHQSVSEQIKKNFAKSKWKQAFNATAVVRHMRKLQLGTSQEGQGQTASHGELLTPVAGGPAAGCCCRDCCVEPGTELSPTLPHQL

With `C=CC(=O)Nc1ccc(OC)c(Nc2cc(-c3[nH]c(CC)nc3-c3cccc(NC(=O)c4cccc5c4NC(=O)c4ccccc4N5)c3)ccn2)c1` [Compound 4] the POC [1] was 89% of control, the POC [2] was 89% of control and the POC [3] was 85% of control. The POC [4] was 81% of control, the POC [5] was 94% of control and the POC [6] was 100% of control. For the same compound, the POC [7] was 95% of control, the POC [8] was 14% of control and the POC [9] was 45% of control. For the same compound, the POC [10] was 6.5% of control, the POC [11] was 18% of control and the POC [12] was 99% of control. The POC [13] was 36% of control, the POC [14] was 100% of control and the POC [15] was 100% of control. The POC [16] was 97% of control, the POC [17] was 78% of control and the POC [18] was 94% of control. The POC [19] was 100% of control, the POC [20] was 93% of control and the POC [21] was 49% of control. The POC [22] was 89% of control, the POC [23] was 9.5% of control and the POC [24] was 100% of control. The POC [25] was 100% of control, the POC [26] was 100% of control and the POC [27] was 69% of control. The POC [28] was 0% of control, the POC [29] was 100% of control and the POC [30] was 14% of control. The POC [31] was 100% of control, the POC [32] was 100% of control and the POC [33] was 93% of control. For the same compound, the POC [34] was 100% of control, the POC [35] was 85% of control and the POC [36] was 100% of control. The POC [37] was 45% of control, the POC [38] was 94% of control and the POC [39] was 22% of control. The POC [40] was 95% of control and the POC [41] was 42% of control.
